Test results reported in US7732458B2 (priority 2004, dated 2010).
Converted amounts (≈) assume the structure as drawn. Read-outs that look alike come from different tables or passages of the source.

Legend:
[1] = system: cell Hep G2 2.2.15; assay: Toxicity to cell Hep G2 2.2.15 (MTT method); format: cell-based, human
[2] = system: HBeAg; format: cell-based, hepatitis B virus
[3] = system: HBsAg; format: cell-based, hepatitis B virus
[4] = system: acute liver injury induced by thioacetamide; assay: Model of acute liver injury induced by thioacetamide in mice; format: in vivo, Kunming mice; details: thioacetamide 30 mg/kg, X ± SD, n = 20; for ALT / AST: blood 24 hours after final dose
Method: The model of acute liver injury induced by thioacetamide in mice Experimental animals: Kunming mice, male or female, weighing 19-22 g, are used in the study. Animals are housed in an animal room with a natural photoperiod and room temperature (23±2° C.), and maintained with free access to standard rodent pellet food and water ad libitum. […] All mice are randomly divided to 7 groups. […] Then all groups are successively dosed three times at an interval of 3 hours, 6 hours and 9 hours after being infected, and the blood samples were obtained at 24 hours (i.e. the next day) after the final dose. The follow markers and liver weight were measured and also the pathological examination were performed (Table 2).

[5] = system: acute hepatic toxicity induced by carbon tetrachloride; assay: Model of acute hepatic toxicity induced by carbon tetrachloride in rats; format: in vivo; details: blood 12 hours after final dose, X ± SD, n = 20
Method: 2. The Model of Acute Hepatic Toxicity Induced by Carbon Tetrachloride in Rats
Matured SD rats, male or female, weighing 250-350 g are used in the study. Animals are maintained with free access to standard rodent pellet food and water ad libitum.
All rats are randomly divided into 6 groups. All the other groups are treated with 0.5 ml/100 g of 50 percent carbon tetrachloride by hypodermic injection to induce acute hepatic toxicity model, except the control group, and are dosed one time simultaneously. Then all groups will be successively dosed at 4 hours and 8 hours, and the blood samples obtained at 12 hours after the final dose for determining ALT and AST. The animals are killed to measure their liver weight and to perform a pathological examination (Table 3).

[6] = system: hepatic toxicity induced by D-galactosamine; assay: Model of hepatic toxicity induced by D-galactosamine in rats; format: in vivo; details: D-galactosamine 800 mg/kg i.p. (Table 4), X ± SD, n = 20
Method: 3. The Model of Hepatic Toxicity Induced by D-Galactosamine in Rats […] Animals are maintained with free access to standard rodent pellet food and water ad libitum. All rats are randomly divided into 4 groups. All groups except the control group are treated simultaneously with 800 mg/kg of 50 percent D-galactosamine by intraperitoneal injection to induce acute hepatic toxicity model. The blood samples are obtained 12 hours after the final dose for determining SGPT and TBIL. The animals are killed to measure their liver weight and to perform a pathological examination (Table 4).

[7] = system: liver fibrosis induced by carbon tetrachloride; assay: Model of liver fibrosis induced by carbon tetrachloride in rats; format: in vivo, Wistar male rats; details: chronic carbon tetrachloride 12 weeks, treated one time a day for 8 weeks, X ± SD, n = 20
Method: 4. The Model of Liver Fibrosis Induced by Carbon Tetrachloride in Rats
Wistar male rats, weighing 100-150 g are used in the study. Animals are housed in an animal room with a 12 h: 12 h photoperiod and at 22° C. Animals are maintained with free access to standard rodent pellet food and water ad libitum
All Wistar male rats are treated with 0.3 ml/(100 g body weight) of 40 percent carbon tetrachloride (dissolved in peanut oil) by hypodermic injection twice a week for 12 weeks to induce […] hepatic fibrosis model, all in phase IV. Then all rats in hepatic fibrosis are randomly divided into the following groups: normal saline (NS) group, sample group and positive contrast group. The NS group rats are treated with 0.2 ml normal saline by intramuscular injection for 8 weeks, and simultaneously, all the other groups are treated with samples one time a day for 8 weeks. […] After that, all rats are killed, and the right lobes of the livers are fixed in neutral formaldehyde solution for histological examination.

[8] = system: MT4 cells; assay: Toxicity of compounds on MT4 cells (MTT method); format: cell-based; details: 6 days
Method: MT4 cells are cultured in 96-well plates (2×10^5 cells/ml, 0.1 ml/well) and the verifying compounds are added and compared against the positive control sample AZT, and the normal cell control group at the same time. Comparisons against DMSO control group and MT4 cell control group are also performed. The culture is maintained at 37° C., 5 percent CO2 for 6 days. The cell activities are tested by the MTT method to determine TC50.

[9] = system: HIV-1 III B; assay: Inhibition of HIV-induced MT4 cell pathological effects (CPE); format: cell-based; details: for IC50: 50 percent effective concentration, CPE in MT4 cells, 72 hours
Method: HIV-1 III B comes from the USA; MT4 cell line comes from Japan.
To determine viral toxicity, HIV are diluted 10 fold in 8 serial [Chinese version is unclear, and this is an educated guess] and MT4 cell pathological effects are then observed in the culture solution of RPMI-1640. Calculated TCID50 is 10-6. The normal cell control group and virus control group are also performed. The samples with five concentrations per group that are diluted by 2 times and 100 μl AZT are added in cell or virus cultures. All concentrations of samples are performed in three repeated wells. The experiments are maintained at 37° C., 5 percent CO2 for 72 hours. Then the cell pathological effects (CPE) are observed under an inverted microscope. IC50 and selective index SI (TC50/IC50) are calculated in Table 7.

[10] = system: influenza A1 virus; assay: Anti-influenza virus experiment in MDCK cells; format: cell-based; details: for IC50: 72 h, MDCK cells, 3 days
[11] = system: arrhythmia induced by aconitine; assay: Arrhythmia induced by aconitine in rats; format: in vivo, Wistar rats; details: for preventive effects on arrhythmia induced by aconitine (in words): intravenously injected, aconitine dosage increased, VT/VF postponed
Method: The antagonistic effects of the dehydrocavidine species compounds on arrhythmia induced by aconitine
The samples are dissolved in hot normal saline up to the needed concentration. Normal saline serves as the control solution. Propafenone serves as a positive control sample.
Wistar rats of both sexes are randomly grouped and anesthetized by urethane (1.2 g/kg), II lead electrocardiogram is recorded. The groups are administered the following drugs by vena femoralis injection: (1) the compound (5 mg/kg, if possible 2.5 mg/kg), (2) propafenone (7 mg/kg), (3) control solution (2 mg/kg). After 5 minutes, aconitine solution (5 μg/ml) was delivered intravenously at a constant speed of 0.08 ml/min. The volume of aconitine solution is recorded when VP, VT and VF occur, and the electrocardiogram is also recorded. EV50 (VF) values are calculated by regression analysis on the basis of the dosage of aconitine consumed by VF in each experiment.

[12] = system: central nervous system; details: in vivo; cited from earlier work
[13] = system: smooth muscles of the intestines; details: cited from earlier work
[14] = system: bacteria; details: cited from earlier work
[15] = normal mice; cited from earlier work
[16] = cited from earlier work
[17] = system: gram-positive bacterium; details: in vitro; cited from earlier work

| Compound | Toxicity to cell ([1]; concentration 0.1 μmol/ml) | Toxicity to cell ([1]; concentration 0.2 μmol/ml) | Toxicity to cell ([1]; concentration 0.4 μmol/ml) | Inhibition frequency to HBeAg (%) ([2]; concentration 0.1 μmol/ml) | Inhibition frequency to HBeAg (%) ([2]; concentration 0.2 μmol/ml) | Inhibition frequency to HBeAg (%) ([2]; concentration 0.4 μmol/ml) | Inhibition frequency to HBsAg (%) ([3]; concentration 0.1 μmol/ml) | Inhibition frequency to HBsAg (%) ([3]; concentration 0.2 μmol/ml) | Inhibition frequency to HBsAg (%) ([3]; concentration 0.4 μmol/ml) | Liver index (g liver wt./100 g body wt.) [4] | ALT [4] | AST [4] | ALT [5] | AST [5] | ALT [6] | AST [6] | Liver index (g liver wt./100 g body wt.) [6] | ALT [7] | AST [7] | TC50 [8] | also measured |
| --- | --- | --- | --- | --- | --- | --- | --- | --- | --- | --- | --- | --- | --- | --- | --- | --- | --- | --- | --- | --- | --- |
| COc1cc2c(cc1OC)-c1c(C)c3ccc4c(c3c[n+]1CC2)OCO4 [dehydrocavidine] | − (“no obvious toxicity” means cell livability ≧75% using MTT method) | − (“no obvious toxicity” means cell livability ≧75% using MTT method) | − (“no obvious toxicity” means cell livability ≧75% using MTT method) | 20.5% | 21.6% | 57.2% | 28.4% | 31.4% | 34.6% | 5.36 ± 0.54 g liver wt./100 g body wt. | 873.50 ± 251.82 | 237.10 ± 73.27 | 774.30 ± 217.11 | 1116.54 ± 348.27 | 846.28 ± 172.54 | 241.20 ± 65.53 | 5.10 ± 0.36 g liver wt./100 g body wt. | 1113.4 ± 247.6 | 987.3 ± 237.9 | >1000 µg/mL | Hydroxy-prodine in Liver [7]: 0.162 ± 0.013; inhibitory effects on HIV viruses (in words) [9]: certain inhibitory effects on HIV viruses; IC50 ([9]; Human immunodeficiency virus 1, read-out: IC50): 12.5 µg/mL; inhibitory effects on influenza viruses (in words) [10]: markedly inhibitory effects on influenza viruses; IC50 [10]: 7.4 µM; ED50 ([11]; Rattus norvegicus, read-out: ED50 (10^−6 mol/Kg)): 7.33 µmol/kg; preventive effects on arrhythmia induced by aconitine (in words) [11]: certain preventive effects on arrhythmia induced by aconitine; effects on the central nervous system [12]: sedative effects on the central nervous system; effects on the smooth muscles of the intestines [13]: antispasm effects on the smooth muscles of the intestines; antibacterial effect in vitro [14]: antibacterial effect in vitro; effects on blood sugar levels [15]: no effects on the blood sugar levels in normal mice; production of glycogen in vivo [16]: effect on increasing the production of glycogen in vivo; inhibitory effect on gram-positive bacterium [17]: certain inhibitory effect on gram-positive bacterium |
| NC(=O)c1ncn([C@@H]2O[C@H](CO)[C@@H](O)[C@H]2O)n1 [Ribavirin, reference compound] |  |  |  |  |  |  |  |  |  |  |  |  |  |  |  |  |  |  |  |  | IC50 [10]: 3.2 µM |
| Cc1cn([C@H]2C[C@H](N=[N+]=[N-])[C@@H](CO)O2)c(=O)[nH]c1=O [AZT, zidouvding, reference compound] |  |  |  |  |  |  |  |  |  |  |  |  |  |  |  |  |  |  |  | 500 µg/mL (≈ 1870 µM) | IC50 [9]: 0.1 µg/mL (≈ 0.374 µM) |
| Nc1ccn([C@@H]2CS[C@H](CO)O2)c(=O)n1 [3TC, reference compound] |  |  |  |  |  |  |  |  |  |  |  |  |  |  |  |  |  |  |  |  | Inhibition frequency to HBeAg (%) ([2]; concentration 1.0 μmol/ml): 24.5%; Inhibition frequency to HBsAg (%) ([3]; concentration 1.0 μmol/ml): 4.8% |
| COc1cc2cc[n+]3cc4c5c(ccc4c(C)c3c2cc1O)OCO5 [dehydroapocavidine] | − (“no obvious toxicity” means cell livability ≧75% using MTT method) | − (“no obvious toxicity” means cell livability ≧75% using MTT method) | − (“no obvious toxicity” means cell livability ≧75% using MTT method) | 26.5% | 33.5% | 62.1% | 15.7% | 21.3% | 28.6% | 5.14 ± 0.48 g liver wt./100 g body wt. | 823.26 ± 178.42 | 241.13 ± 62.81 | 955.36 ± 327.18 | 903.52 ± 256.94 | 1027.10 ± 277.38 | 345.20 ± 68.29 | 4.47 ± 0.47 g liver wt./100 g body wt. | 973.2 ± 273.5 | 1057.1 ± 338.7 | 250 µg/mL | Hydroxy-prodine in Liver [7]: 0.175 ± 0.018; inhibitory effects on HIV viruses (in words) [9]: certain inhibitory effects on HIV viruses; IC50 [9]: 6.25 µg/mL; inhibitory effects on influenza viruses (in words) [10]: markedly inhibitory effects on influenza viruses; preventive effects on arrhythmia induced by aconitine (in words) [11]: certain preventive effects on arrhythmia induced by aconitine; ED50 (10^−6 mol/Kg) ([11]; rats, vena femoralis injection, regression on aconitine dosage consumed by VF): 4.26 10^−6 mol/Kg |
